Measured values taken from patent publication US11292788B2, “IL-17 and IFN-gamma inhibition for the treatment of autoimmune diseases and chronic inflammation” (Immunic AG, priority 2017, dated 2022).
pIC50: −log10 of the molar value.

Experiments:
Type in all cases: cell-based
INF-γ = test: Cytokine assay: INF-γ production by human PBMC stimulated with PHA; conditions: Homo sapiens, PBMC, IC50 class, read-out: IFN-gamma Inhib.
How it was run: (§1)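 Compounds were titrated semilogarithmically for IC50, or screened at 10, 1, 0.1 and 0.01 μM, on healthy-donor PBMC stimulated for 48 h with 2 μg/ml PHA at 1×10^5 cells/well. Cytokines in culture supernatants were then quantified by ELISA or Luminex bead assay.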

IL-17A = test: Cytokine assay: IL-17A production by human PBMC stimulated with PHA; conditions: Homo sapiens, PBMC, IC50 class, read-out: IL-17A Inhib.
How it was run: as §1

IL-17F = test: Cytokine assay: IL-17F production by human PBMC stimulated with PHA; conditions: Homo sapiens, PBMC, IC50 class, read-out: IL-17F Inhib.
How it was run: as §1

Structure (SMILES) | pIC50 (INF-γ) | pIC50 (IL-17A) | pIC50 (IL-17F)
CC(C)(O)CCn1ncc(-c2onc(-c3cccc(OCCCN4CCCC4)c3Cl)c2-c2ncccn2)c1C(F)(F)F [Example 142, 4-[4-(3-{2-chloro-3-[3-(pyrrolidin-1-yl)propoxy]phenyl}-4-(pyrimidin-2-yl)-1,2-oxazol-5-yl)-5-(trifluoromethyl)-1H-pyrazol-1-yl]-2-methylbutan-2-ol] | 6.30 to 7.30 | 6.30 to 7.30 | 6.30 to 7.30
CCN(CC)CCCOc1cccc(-c2noc(-c3cnn(CCC(C)(C)O)c3C(F)(F)F)c2-c2ncccn2)c1Cl [Example 143, 4-[4-(3-{2-chloro-3-[3-(diethylamino)propoxy]phenyl}-4-(pyrimidin-2-yl)-1,2-oxazol-5-yl)-5-(trifluoromethyl)-1H-pyrazol-1-yl]-2-methylbutan-2-ol] | > 7.30 | > 7.30 | > 7.30
COC(=O)c1c(-c2cccc(OCCN(C)C)c2Cl)noc1-c1cnn(C[C@H](C)O)c1C(F)(F)F [Example 149, methyl 3-{2-chloro-3-[2-(dimethylamino)ethoxy]phenyl}-5-{1-[(2S)-2-hydroxypropyl]-5-(trifluoromethyl)-1H-pyrazol-4-yl}-1,2-oxazole-4-carboxylate] | 6.30 to 7.30 | 6.30 to 7.30 | 5.30 to 6.30
C[C@@H](O)Cn1ncc(-c2onc(-c3cccc(C(=O)N4CCOCC4)c3Cl)c2-c2ccncn2)c1C(F)(F)F [Example 154, (R)-(2-chloro-3-(5-(1-(2-hydroxypropyl)-5-(trifluoromethyl)-1H-pyrazol-4-yl)-4-(pyrimidin-4-yl)isoxazol-3-yl)phenyl) (morpholino)methanone] | 6.30 to 7.30 | 5.30 to 6.30 | ≤ 5.30
C[C@@H](O)Cn1ncc(-c2onc(-c3cccc(C(=O)NC4CCC4)c3Cl)c2-c2ccncn2)c1C(F)(F)F [Example 155, (R)-2-chloro-N-cyclobutyl-3-(5-(1-(2-hydroxypropyl)-5-(trifluoromethyl)-1H-pyrazol-4-yl)-4-(pyrimidin-4-yl)isoxazol-3-yl)benzamide] | 6.30 to 7.30 | 6.30 to 7.30 | 6.30 to 7.30
CCNC(=O)c1cccc(-c2noc(-c3cnn(C[C@@H](C)O)c3C(F)(F)F)c2-c2ccncn2)c1Cl [Example 156, (R)-2-chloro-N-ethyl-3-(5-(1-(2-hydroxypropyl)-5-(trifluoromethyl)-1H-pyrazol-4-yl)-4-(pyrimidin-4-yl)isoxazol-3-yl)benzamide] | 5.30 to 6.30 | ≤ 5.30 | ≤ 5.30
CC(C)NC(=O)c1cccc(-c2noc(-c3cnn(C[C@@H](C)O)c3C(F)(F)F)c2-c2ccncn2)c1Cl [Example 157, (R)-2-chloro-3-(5-(1-(2-hydroxypropyl)-5-(trifluoromethyl)-1H-pyrazol-4-yl)-4-(pyrimidin-4-yl)isoxazol-3-yl)-N-isopropylbenzamide] | 6.30 to 7.30 | 5.30 to 6.30 | 5.30 to 6.30
C[C@@H](O)Cn1ncc(-c2onc(-c3cccc(C(=O)N4CCC4)c3Cl)c2-c2ccncn2)c1C(F)(F)F [Example 158, (R)-(azetidin-1-yl)(2-chloro-3-(5-(1-(2-hydroxypropyl)-5-(trifluoromethyl)-1H-pyrazol-4-yl)-4-(pyrimidin-4-yl)isoxazol-3-yl)phenyl)methanone] | 6.30 to 7.30 | 6.30 to 7.30 | 6.30 to 7.30
C[C@@H](O)Cn1ncc(-c2onc(-c3cccc(C(=O)NC4CC4)c3Cl)c2-c2ccncn2)c1C(F)(F)F [Example 159, (R)-2-chloro-N-cyclopropyl-3-(5-(1-(2-hydroxypropyl)-5-(trifluoromethyl)-1H-pyrazol-4-yl)-4-(pyrimidin-4-yl)isoxazol-3-yl)benzamide] | 6.30 to 7.30 | 5.30 to 6.30 | 5.30 to 6.30

Continued, values first:

pIC50 (INF-γ) | pIC50 (IL-17A) | pIC50 (IL-17F) | Structure (SMILES)
5.30 to 6.30 | ≤ 5.30 | ≤ 5.30 | COc1c(C(=O)NC2CC2)cccc1-c1noc(-c2cnn(C[C@@H](C)O)c2C(F)(F)F)c1-c1ccncn1 [Example 161, (R)—N-cyclopropyl-3-(5-(1-(2-hydroxypropyl)-5-(trifluoromethyl)-1H-pyrazol-4-yl)-4-(pyrimidin-4-yl)isoxazol-3-yl)-2-methoxybenzamide]
6.30 to 7.30 | 5.30 to 6.30 | ≤ 5.30 | COc1c(C(=O)NC(C)C)cccc1-c1noc(-c2cnn(C[C@@H](C)O)c2C(F)(F)F)c1-c1ccncn1 [Example 162, (R)-3-(5-(1-(2-hydroxypropyl)-5-(trifluoromethyl)-1H-pyrazol-4-yl)-4-(pyrimidin-4-yl)isoxazol-3-yl)-N-isopropyl-2-methoxybenzamide]
5.30 to 6.30 | ≤ 5.30 | ≤ 5.30 | COc1c(C(=O)N2CCC2)cccc1-c1noc(-c2cnn(C[C@@H](C)O)c2C(F)(F)F)c1-c1ccncn1 [Example 163, (R)-(azetidin-1-yl)(3-(5-(1-(2-hydroxypropyl)-5-(trifluoromethyl)-1H-pyrazol-4-yl)-4-(pyrimidin-4-yl)isoxazol-3-yl)-2-methoxyphenyl)methanone]
5.30 to 6.30 | 5.30 to 6.30 | 5.30 to 6.30 | COc1c(C(=O)NC2CCC2)cccc1-c1noc(-c2cnn(C[C@@H](C)O)c2C(F)(F)F)c1-c1ccncn1 [Example 164, (R)—N-cyclobutyl-3-(5-(1-(2-hydroxypropyl)-5-(trifluoromethyl)-1H-pyrazol-4-yl)-4-(pyrimidin-4-yl)isoxazol-3-yl)-2-methoxybenzamide]
5.30 to 6.30 | 5.30 to 6.30 | ≤ 5.30 | CCNC(=O)c1cccc(-c2noc(-c3cnn(C[C@@H](C)O)c3C(F)(F)F)c2-c2ccncn2)c1OC [Example 165, (R)—N-ethyl-3-(5-(1-(2-hydroxypropyl)-5-(trifluoromethyl)-1H-pyrazol-4-yl)-4-(pyrimidin-4-yl)isoxazol-3-yl)-2-methoxybenzamide]
5.30 to 6.30 | 5.30 to 6.30 | ≤ 5.30 | C[C@@H](O)Cn1ncc(-c2onc(-c3cccc(C(=O)NC4CCC4)c3)c2-c2ccncn2)c1C(F)(F)F [Example 166, (R)—N-cyclobutyl-3-(5-(1-(2-hydroxypropyl)-5-(trifluoromethyl)-1H-pyrazol-4-yl)-4-(pyrimidin-4-yl)isoxazol-3-yl)benzamide]
5.30 to 6.30 | ≤ 5.30 | ≤ 5.30 | CC(C)NC(=O)c1cccc(-c2noc(-c3cnn(C[C@@H](C)O)c3C(F)(F)F)c2-c2ccncn2)c1 [Example 167, (R)-3-(5-(1-(2-hydroxypropyl)-5-(trifluoromethyl)-1H-pyrazol-4-yl)-4-(pyrimidin-4-yl)isoxazol-3-yl)-N-isopropylbenzamide]
